Results published in patent US20180087086A1, “CELL EGRESS AND INVASION INHIBITORS AND THEIR USE AS ANTIPARASITICAL AGENTS” (THE JOHNS HOPKINS UNIVERSITY, priority 2015, published 2018).

Legend:
[1] = tested on: P. falciparum sporozoites; assay: dose-dependent killing of P. falciparum sporozoites; format: cell-based; details: Plasmodium falciparum
Source text: Observed phenotype at lower concentration pinpoints towards an on-target effect of the compounds.

[2] = tested on: sporozoites; assay: gliding motility assay with compound washout (reversibility); format: cell-based
Procedure: FIG. 13 B is a series of photomicrographs that show representative images from slides of gliding sporozoites. DMSO treated sporozoites (a, upper left) with circular gliding pattern versus (b, upper right) pyrazole-urea compound treated sporozoites with a unique wavy line gliding pattern. Below are images of a compound 4 washout slide at 7.8 μM showing a similar wavy gliding patterns in addition to circular gliding (c, d).
A gliding motility assay with a compound washout step was also performed to measure the reversibility of the compound's effects. The sporozoites were incubated at for a total of 20 min with the compound before they were washed and re-suspend and allowed to glide.

[3] = tested on: P. berghei sporozoites; assay: in vitro sporozoite gliding assay (CSP trails on anti-CSP coated slides); format: cell-based; details: for effect on gliding motility (comparison among the five compounds): 250-31.25 μM; for share of gliding sporozoites that were low gliding (less than 10 trails) / sporozoites gliding: lowest concentration of compound (31.25 μM)
Procedure: Compounds selected from the initial hit list were tested using in vitro gliding assays. Five compounds were selected for dose dependent testing on gliding motility based on early crystallographic experiments and first round gliding assay experiments at high concentration.
P. berghei sporozoites were purified from mosquitoes, incubated with compound, and allowed to glide on anti-CSP coated slides. The CSP-trails deposited by the gliding parasites were detected with anti-CSP antibodies. Trails were quantified for each sporozoite. The ability of each sporozoite to glide was categorized as no gliding (0 trails), and low (<10 trails), medium (10-20 trails), and high gliding (>20 trails).
In the DMSO control, more than 90% of sporozoites deposited trails, with >60% classified as medium and high gliding (>10 trails). […] At lower concentrations of compounds, the sporozoites did start to recover their gliding ability. However, for compound 4 at the lowest concentration of compound, less than 60% of the sporozoites were gliding and when they did glide, 90% of those sporozoites were depositing less than 10 trails and upon inspection of multiple fields, they typically could only complete one circular trail. For compound 18, less than 25% of sporozoites were able to glide at the lowest compound concentration and 75% of those sporozoites were low gliding, with less than 10 trails deposited; however, these low gliding parasites typically deposited more than 1 trail, unlike those from compound 4. […] However, from this single assay, it is not possible to assess whether the compounds were directly affecting the motor through the proposed TRAP-Aldolase interaction, by affecting an energy production step necessary to generate ATP for motor power, or by cytocidal effect.

[4] = target: T1, rabbit aldolase (Oryctolagus cuniculus, UniProt P00883); assay: aldolase enzyme activity assay, rabbit aldolase; format: biochemical; details: surrogate for human aldolase
T1 sequence (P00883 1-364): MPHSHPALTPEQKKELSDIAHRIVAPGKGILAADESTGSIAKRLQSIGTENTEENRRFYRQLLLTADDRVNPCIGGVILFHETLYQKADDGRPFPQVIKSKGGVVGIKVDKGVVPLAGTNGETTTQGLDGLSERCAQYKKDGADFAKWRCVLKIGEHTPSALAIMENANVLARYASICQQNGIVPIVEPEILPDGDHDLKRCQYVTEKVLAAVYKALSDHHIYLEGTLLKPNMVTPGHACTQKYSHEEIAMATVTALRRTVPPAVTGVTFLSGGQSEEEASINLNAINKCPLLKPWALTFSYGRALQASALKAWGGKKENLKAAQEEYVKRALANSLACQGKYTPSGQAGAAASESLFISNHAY
Source text: (§1) FIGS. 16A-16D depict an aldolase enzyme activity assay. (A) Cartoon and surface representation of aldolase with TRAPpep bound (magenta, sticks) (PDB entry 2pc4), overlapping the F16BP (green, sticks) substrate binding site (PDB entry 4ald), via PyMOL. (B) Coupled enzyme assay to measure aldolase activity via NADH consumption as measured at 340 nm. (C) Concentration-dependent effect of compounds on PfAldolase inhibition in the presence of PbTRAP peptide. Activity is normalized to the PbTRAP control, which reduces Vmax to 50% of enzyme without PbTRAP. (D) PfAldolase activity in the presence of compounds to determine direct inhibition of enzyme by the compounds. Activity is normalized to the PfAldolase control measured Vmax. Standard error means plotted for activity assays and standard deviation for SPR data.
(§2) Dose-Dependent Enzymatic Inhibition of Compounds on P. falciparum Aldolase and Rabbit Aldolase as a Surrogate for Human Aldolase.

[5] = target: P. falciparum aldolase in the presence of TRAP (Plasmodium falciparum, UniProt Q7KQL9); assay: aldolase enzyme activity assay, P. falciparum aldolase in the presence of TRAP; format: biochemical; details: in the presence of TRAP and the compounds
Source text: as §1, §2

[6] = tested on: P. berghei sporozoites; assay: trail radius of gliding sporozoites (ImageJ); format: cell-based; details: 62.5 μM; 130-150 trail radii; p-value <0.0001
Procedure: The trail radius was measured using ImageJ and the statistical analyses to determine standard error mean and t-test were performed using GraphPad.
The gliding phenotype was altered to determine whether the compounds were having off-target effects. While quantifying the number of deposited trails, the trail diameter in the presence of compounds was altered. An altered trail diameter is more likely due to either a direct effect on the motor or an effect on sporozoite shape. The diameter of the circular trails deposited by the parasites in the DMSO control was measured and in the presence of three compounds at 62.5 μM (FIG. 8). This concentration was chosen because at higher concentrations, there were not enough sporozoite trails to measure to do a statistical analysis of the results. Using ImageJ, circles were fit to trails in multiple images to measure 130-150 trail radii. The average trail radii increased in the presence of compounds 4, 17, and 18 with a p-value <0.0001. The increase in average trail size was 6.3 microns, 2.5 microns, and 3.6, for compounds 4, 17, and 18, respectively.

[7] = tested on: Plasmodium parasite; assay: cytocidal activity (assay not specified); format: cell-based; details: 60 μM concentration
Source text: As described herein, inferring from sequence identity between TRAP and CTRP, the Aldolase-CTRP complex is inhibited during the mosquito stage.

Sequence of P. falciparum aldolase in the presence of TRAP (Q7KQL9 whole entry): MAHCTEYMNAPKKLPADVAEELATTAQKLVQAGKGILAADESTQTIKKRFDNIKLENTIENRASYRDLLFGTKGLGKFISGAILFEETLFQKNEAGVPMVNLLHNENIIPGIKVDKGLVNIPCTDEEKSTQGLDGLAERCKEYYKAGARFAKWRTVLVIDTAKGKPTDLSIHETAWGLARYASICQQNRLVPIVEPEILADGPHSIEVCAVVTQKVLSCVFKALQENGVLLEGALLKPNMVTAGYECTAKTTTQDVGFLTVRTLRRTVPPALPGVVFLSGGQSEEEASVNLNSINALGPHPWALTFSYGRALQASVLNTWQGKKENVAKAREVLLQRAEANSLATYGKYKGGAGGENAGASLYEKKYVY

| Compound | EC90 [1] | reversibility of gliding effect after washout ([2]; any concentration) | number of high gliding parasites after washout, relative to DMSO control ([2]; less than 8 μM) | total number of parasites gliding after washout ([2]; less than 8 μM) | effect on gliding motility (comparison among the five compounds) [3] | share of gliding sporozoites that were low gliding (less than 10 trails) [3] | sporozoites gliding [3] | enzyme inhibition on rabbit aldolase [4] | inhibition of P. falciparum aldolase [5] | increase in average trail size (trail radius) vs DMSO control [6] | cytocidal activity [7] | reversibility of gliding effect after washout ([2]; 31.25 μM) | reversibility of gliding effect after washout ([2]; 62.5 μM) | reversibility of gliding effect after washout ([2]; 15.625 and 7.8125 μM, 20 min incubation before wash) |
| --- | --- | --- | --- | --- | --- | --- | --- | --- | --- | --- | --- | --- | --- | --- |
| Brc1ccc(Nc2nc3ccccc3nc2Nc2ccc(Br)cc2)cc1 [Compound 4, N,N′-bis(4-bromophenyl)-2,3-quinoxalinediamine] | ~125 µM | no complete reversibility | 10% | comparable to wild type | greatest effect | 90% | less than 60% | no enzyme inhibition | inhibited | 6.3 microns | cytocidal activity | – | – | – |
| CCCCn1c(N)c(C(=O)NCc2ccccc2)c2nc3ccccc3nc21 [Compound 18, 2-amino-N-benzyl-1-butyl-1H-pyrrolo[2,3-b]quinoxaline-3-carboxamide] | ~30 µM | – | – | – | greatest effect | 75% | less than 25% | – | – | 3.6 microns | – | the number of high-gliding parasites increased | little reversibility | completely reversible |
